The source of these data is US5130327A, “Indole derivatives” (Consejo Superior de Investigaciones Cientificas, priority 1989, dated 1992).

The nature of series [1]: Potentiation of 5-HT. The class given is in vivo.
Series [2] concerns brain, duodenum and liver MAO A. Description: In vivo inhibition of MAO A of different tissues after chronic treatment. Further details: species or system rat. Conditions: cerebral vs intestinal or hepatic. The method, then: 4. "In vivo" inhibition of MAO A and B of different tissues after chronic treatment.
In order to evaluate the effect of compounds in a chronic treatment, the inhibitory activity on brain, duodenum and liver MAO A and B has been studied "in vivo". Wistar male rats were treated at two dose levels, 0.1 and 0.25 mg/kg i.p. for 15 and 21 days. Control rats received similar amounts of saline solution.

Series [3] deals with cerebral β-adrenergic receptors. Description: Effects of chronic treatment on β receptors. The class given is in vivo. Conditions: chronic administration in the rat. The method, then: (§1) Effects of chronic treatment on α2 -, β- and 5-HT2 receptors. The test compounds, at a dose of 10 mg/kg/day i.p., were administered for 21 days to Wistar male rats (250±2.4 g). After treatment the animals were killed, brains were dissected and cortices were scraped from the dorsal surface of the […]. ^3 H UK 14304, ^3 H Dihydroalprenalol and ^3 H Ketanserin were used as ligands in the binding studies.

Series [4] deals with reuptake of dopamine. In words: Reuptake of dopamine in vitro, crude synaptosomal preparation. The class given is biochemical, rat. As to the method:
Influence on the reuptake of monoamines "in vitro" was also studied. The effect of the compounds on the reuptake of 5-HT noradrenaline and dopamine was studied using Wistar male rats (350±2.5 g). They were kept under controlled light and temperature conditions and fed "ad libitum" until killed. The animals were killed by decapitation and brains were frozen and stored at -20° C. prior to analysis. Brains were dissected on an ice-filled petri dish. The cortices for 5-HT and noradrenaline assay and striatum (including caudate nucleus, putamen and globus pallidus) for dopamine assay were immediately weighed and homogenized. […] All drugs used in the study were dissolved in the incubation medium in a concentration range 10^-4 to 10^-8 M and were preincubated with the crude synaptosomal preparation obtained from the treated brains, for 5 min. at 37° C. or 0° C. before the addition of the labelled substrate.

The nature of series [5]: Interaction with salbutamol-induced hypoactivity. The class given is in vivo. From the text:
(§2) The action mechanism was studied in acute and chronic treatments on the interaction response with clonidine, salbutamol (Richard, J. Intern. J. Neuroscience, 9:17-19, 1979) and tetrabenazine (Pletscher, A.: An. N.Y. Aca. Sci. 80:1039-1045, 1959), and the response to the potentiation with L-dopa, L-tryptophan, tryptamine (Jalfre, M. et al., Arch. Int. Pharmacodyn, 159:194-221, 1982) and β-phenylethylamine (Ortmann, et al, Psychopharmacol. 84:22-27, 1984).

A short description of series [6]: Secondary effects on the cardiovascular system. Conditions: in vivo. The method, then: The secondary effects were studied mainly on the cardiovascular system, and the effects on the arterial pressure, heart rate and rhythm, P-R interval and isolated organ (rabbit aortic rings and isolated atria), were evaluated both after acute and chronic treatments. In the same way, the "cheese effect" was studied by means of the tyramine potentiation.

Series [7] concerns the target T1, Bovine Brain MAO B (Bos taurus, UniProt P56560).
T1 construct: in vitro activity of MAO from bovine brain mitochondria; from tissue; host or cells: bovine brain mitochondria
T1 sequence (P56560 1-520): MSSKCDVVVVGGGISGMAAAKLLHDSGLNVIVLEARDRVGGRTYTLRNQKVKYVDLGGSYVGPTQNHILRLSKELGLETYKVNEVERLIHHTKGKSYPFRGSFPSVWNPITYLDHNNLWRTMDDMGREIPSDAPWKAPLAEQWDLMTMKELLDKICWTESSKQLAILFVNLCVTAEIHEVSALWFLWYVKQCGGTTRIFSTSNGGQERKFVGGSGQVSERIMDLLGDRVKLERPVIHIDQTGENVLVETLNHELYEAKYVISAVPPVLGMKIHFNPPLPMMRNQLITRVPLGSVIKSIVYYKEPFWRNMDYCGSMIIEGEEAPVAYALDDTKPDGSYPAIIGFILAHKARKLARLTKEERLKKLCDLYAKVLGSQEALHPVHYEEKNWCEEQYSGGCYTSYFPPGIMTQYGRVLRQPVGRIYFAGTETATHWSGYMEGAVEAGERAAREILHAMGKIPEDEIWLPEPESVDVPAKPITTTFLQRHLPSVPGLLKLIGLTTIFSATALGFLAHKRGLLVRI
Description: In vitro inhibition of MAO from bovine brain mitochondria, tyramine as substrate (form B). Type of series: biochemical. The following applies: pI50 = -log [I50], molar; bovine brain mitochondria, tyramine as substrate. From the text:
The following table illustrates the structure of particular compounds of the invention (1). It also gives specific pI50 values where pI50 =-log [I50 ] where [I50 ] is the molar concentration of test compound which inhibits 50% of the in vitro activity of MAO from bovine brain mitochondria using tyramine as substrate.

Series [8] concerns 5-HT receptors. Description: Effects of chronic treatment on 5-HT2 receptors. The class given is in vivo. Conditions: chronic administration in the rat. The method, then:
as §1

The nature of series [9]: Potentiation of L-tryptophan, L-dopa and tryptamine. The following applies: in vivo.
Description: as §2

For series [10], the system named is reuptake of noradrenaline. Description: Reuptake of noradrenaline in vitro, crude synaptosomal preparation. The class given is biochemical, rat. The method, then: Influence on the reuptake of monoamines "in vitro" was also studied. The effect of the compounds on the reuptake of 5-HT noradrenaline and dopamine was studied using Wistar male rats (350±2.5 g). They were kept under controlled light and temperature conditions and fed "ad libitum" until killed. The animals were killed by decapitation and brains were frozen and stored at -20° C. prior to analysis. Brains were dissected on an ice-filled petri dish. The cortices for 5-HT and noradrenaline assay and striatum (including caudate nucleus, putamen and globus pallidus) for dopamine assay were immediately weighed and homogenized. The standard incubation medium contained: 1.7 μM ^14 C-5-HT); 0.5μM ^3 H-noradrenaline or 1 μM ^3 H-dopamine with 0.1 ml of the crude synaptosomal preparation. All drugs used in the study were dissolved in the incubation medium in a concentration range 10^-4 to 10^-8 M and were preincubated with the crude synaptosomal preparation obtained from the treated brains, for 5 min. at 37° C. or 0° C. before the addition of the labelled substrate.

The term ED50 denotes the midpoint of the dose-response relation. For orientation: IC50 means the concentration that gives 50% inhibition.

For the compound `C#CCN(C)Cc1cc2cc(OC)ccc2n1C` [(l), N-methyl-N-propargyl-2-(1-methyl-5-methoxy-indolyl)methylamine], in series [1], the ED50 was found to be 0.34 mg/kg. In addition, in series [2], the “MAO A inhibitory effect, comparison of tissues” value was “higher on cerebral MAO A than on intestinal or hepatic MAO A”. In addition, the “Number or affinity of cerebral β-adrenergic receptors” value in series [3] is listed as “does not modify”. For the same compound, in series [4], the “Inhibition of the reuptake of dopamine” value was “very weak inhibitor”, the “Potency as inhibitor of dopamine reuptake relative to amitryptiline” value is “similar” and the “Potency as inhibitor of dopamine reuptake relative to imipramine” value is “ten fold”. Besides, the “Hypoactivity by salbutamol, acute treatment” value in [5] (acute treatment) is reported as “not modifying it”. The “Hypoactivity by salbutamol, chronic treatment” value in [5] (chronic treatment (14 days)) is on record as “antagonized”. In addition, the Cardiovascular effects result in series [6] was “hypotensive and negative chronotrope”. In [7], this compound gave an IC50 of 891 nM. Moreover, the “Modifications on 5-HT receptors” value in [8] is “not statistically significant”. Further, in series [9], the “Potentiation of effects of L-tryptophan, L-dopa and tryptamine” value is reported as “confirm the MAO inhibitory activity”. The “Effect on the reuptake of noradrenaline” value in series [10] is “no effect”.
